From BindingDB's records for doi:10.1021/cb500956g (University of North Carolina At Chapel Hill, 2015)

How the values were obtained:
Experiment in all cases: AlphaScreen Assay
Settings in all cases: pH 8
[1] = biological target: T1, Chromobox protein homolog 7 (Homo sapiens, UniProt O95931)
T1 sequence (O95931 whole entry): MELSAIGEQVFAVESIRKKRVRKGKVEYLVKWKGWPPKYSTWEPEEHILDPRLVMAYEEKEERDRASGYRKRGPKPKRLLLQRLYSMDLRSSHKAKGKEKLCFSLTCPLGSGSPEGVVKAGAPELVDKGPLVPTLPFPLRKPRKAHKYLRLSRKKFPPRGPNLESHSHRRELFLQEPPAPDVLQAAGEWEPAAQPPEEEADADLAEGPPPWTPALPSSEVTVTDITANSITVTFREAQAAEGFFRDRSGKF
Description: (§1) In brief, compound plates (1 μL at 10 mM highest concentration; 3-fold, 10-point dilutions in DMSO) were diluted in 1X assay buffer (20 mM TRIS pH 8.0, 25 mM NaCl, 2 mM DTT and 0.05% Tween-20) to 1 mM using a Multimek robotic pipettor (Nanoscreen), and 1 μL was spotted into the wells of 384-well low-volume Proxiplates (PerkinElmer). To these plates was added 9 μL of protein−peptide mix in a 1X assay buffer by Multidrop (Thermo) to bring the final compound concentration to 100 μM, and this was incubated for 30 min at RT. Next, 2 μL of a 1:1 mixture of streptavidin-conjugate donor and nickel-chelate acceptor beads (45μg/mL in 1X assay buffer) were added, and the plates were allowed to incubate for an additional 30 min in the dark at RT. After incubation, the plates were read on an EnVision multilabel reader equipped with an HTS AlphaScreen laser (PerkinElmer).

[2] = biological target: T2, E3 ubiquitin-protein ligase UHRF1 (Homo sapiens, UniProt Q96T88)
T2 sequence (Q96T88 whole entry): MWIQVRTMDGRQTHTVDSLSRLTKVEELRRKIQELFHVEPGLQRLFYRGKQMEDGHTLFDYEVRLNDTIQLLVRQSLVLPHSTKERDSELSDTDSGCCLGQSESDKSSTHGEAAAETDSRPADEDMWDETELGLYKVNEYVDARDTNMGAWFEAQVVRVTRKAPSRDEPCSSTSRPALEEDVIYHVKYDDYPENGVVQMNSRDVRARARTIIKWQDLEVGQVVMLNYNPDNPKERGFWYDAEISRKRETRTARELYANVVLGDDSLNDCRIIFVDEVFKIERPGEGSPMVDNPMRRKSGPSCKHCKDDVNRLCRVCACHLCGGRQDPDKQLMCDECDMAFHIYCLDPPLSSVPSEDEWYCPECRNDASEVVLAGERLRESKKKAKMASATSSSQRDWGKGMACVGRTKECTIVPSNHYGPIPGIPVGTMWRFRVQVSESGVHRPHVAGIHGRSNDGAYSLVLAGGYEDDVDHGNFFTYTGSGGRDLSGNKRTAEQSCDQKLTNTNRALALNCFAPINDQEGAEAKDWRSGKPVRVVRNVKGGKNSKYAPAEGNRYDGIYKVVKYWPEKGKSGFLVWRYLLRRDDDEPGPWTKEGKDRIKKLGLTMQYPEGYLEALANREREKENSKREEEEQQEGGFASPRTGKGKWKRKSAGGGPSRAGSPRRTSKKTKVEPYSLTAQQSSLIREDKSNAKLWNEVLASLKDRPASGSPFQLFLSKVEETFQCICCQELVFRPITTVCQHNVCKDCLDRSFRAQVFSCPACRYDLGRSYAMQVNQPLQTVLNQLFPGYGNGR
Description: as §1

[3] = biological target: T3, Isoform 4 of Lethal(3)malignant brain tumor-like protein 1 (4) (Homo sapiens, UniProt Q9Y468)
T3 sequence (Q9Y468 whole entry): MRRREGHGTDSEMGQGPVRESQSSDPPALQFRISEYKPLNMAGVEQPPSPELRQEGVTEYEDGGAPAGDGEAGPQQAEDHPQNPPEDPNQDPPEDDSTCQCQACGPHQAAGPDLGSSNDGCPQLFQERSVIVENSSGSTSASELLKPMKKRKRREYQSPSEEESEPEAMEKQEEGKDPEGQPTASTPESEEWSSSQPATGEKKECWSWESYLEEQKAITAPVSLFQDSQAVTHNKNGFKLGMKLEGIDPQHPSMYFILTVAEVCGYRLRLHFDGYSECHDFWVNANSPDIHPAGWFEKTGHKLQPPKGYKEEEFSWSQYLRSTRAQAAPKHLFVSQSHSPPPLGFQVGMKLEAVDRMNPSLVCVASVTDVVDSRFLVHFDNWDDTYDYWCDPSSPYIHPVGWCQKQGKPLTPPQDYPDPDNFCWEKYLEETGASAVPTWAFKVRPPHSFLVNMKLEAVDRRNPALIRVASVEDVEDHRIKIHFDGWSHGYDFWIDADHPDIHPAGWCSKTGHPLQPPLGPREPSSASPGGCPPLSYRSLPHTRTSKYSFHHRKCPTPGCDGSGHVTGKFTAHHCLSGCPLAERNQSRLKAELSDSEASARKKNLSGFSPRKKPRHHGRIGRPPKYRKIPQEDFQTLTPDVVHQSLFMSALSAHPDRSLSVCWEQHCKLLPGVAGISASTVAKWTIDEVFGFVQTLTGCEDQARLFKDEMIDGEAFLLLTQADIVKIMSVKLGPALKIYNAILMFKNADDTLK
Description: as §1

[4] = biological target: MBT domain-containing protein 1 (Homo sapiens, UniProt Q05BQ5)
Description: as §1

[5] = biological target: T4, PHD finger protein 1 (Homo sapiens, UniProt O43189)
T4 sequence (O43189 whole entry): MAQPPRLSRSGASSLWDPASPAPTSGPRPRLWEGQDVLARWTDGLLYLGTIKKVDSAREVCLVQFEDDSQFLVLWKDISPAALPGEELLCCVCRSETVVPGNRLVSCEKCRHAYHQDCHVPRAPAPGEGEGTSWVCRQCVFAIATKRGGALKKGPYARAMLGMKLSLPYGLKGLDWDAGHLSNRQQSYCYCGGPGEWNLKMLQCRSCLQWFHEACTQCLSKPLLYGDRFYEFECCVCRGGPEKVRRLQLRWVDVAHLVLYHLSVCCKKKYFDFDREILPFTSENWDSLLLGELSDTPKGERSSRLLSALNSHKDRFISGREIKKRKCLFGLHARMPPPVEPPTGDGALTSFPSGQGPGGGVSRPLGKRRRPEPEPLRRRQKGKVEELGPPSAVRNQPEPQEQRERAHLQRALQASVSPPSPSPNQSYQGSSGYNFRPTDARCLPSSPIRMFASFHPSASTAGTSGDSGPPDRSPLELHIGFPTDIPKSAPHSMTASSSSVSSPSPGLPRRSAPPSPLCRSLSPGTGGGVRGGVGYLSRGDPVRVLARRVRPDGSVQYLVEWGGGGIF
Description: as §1

[6] = biological target: TP53-binding protein 1 (Homo sapiens, UniProt Q12888)
Description: as §1

Measured: IC50

Sequence of TP53-binding protein 1 (Q12888 whole entry): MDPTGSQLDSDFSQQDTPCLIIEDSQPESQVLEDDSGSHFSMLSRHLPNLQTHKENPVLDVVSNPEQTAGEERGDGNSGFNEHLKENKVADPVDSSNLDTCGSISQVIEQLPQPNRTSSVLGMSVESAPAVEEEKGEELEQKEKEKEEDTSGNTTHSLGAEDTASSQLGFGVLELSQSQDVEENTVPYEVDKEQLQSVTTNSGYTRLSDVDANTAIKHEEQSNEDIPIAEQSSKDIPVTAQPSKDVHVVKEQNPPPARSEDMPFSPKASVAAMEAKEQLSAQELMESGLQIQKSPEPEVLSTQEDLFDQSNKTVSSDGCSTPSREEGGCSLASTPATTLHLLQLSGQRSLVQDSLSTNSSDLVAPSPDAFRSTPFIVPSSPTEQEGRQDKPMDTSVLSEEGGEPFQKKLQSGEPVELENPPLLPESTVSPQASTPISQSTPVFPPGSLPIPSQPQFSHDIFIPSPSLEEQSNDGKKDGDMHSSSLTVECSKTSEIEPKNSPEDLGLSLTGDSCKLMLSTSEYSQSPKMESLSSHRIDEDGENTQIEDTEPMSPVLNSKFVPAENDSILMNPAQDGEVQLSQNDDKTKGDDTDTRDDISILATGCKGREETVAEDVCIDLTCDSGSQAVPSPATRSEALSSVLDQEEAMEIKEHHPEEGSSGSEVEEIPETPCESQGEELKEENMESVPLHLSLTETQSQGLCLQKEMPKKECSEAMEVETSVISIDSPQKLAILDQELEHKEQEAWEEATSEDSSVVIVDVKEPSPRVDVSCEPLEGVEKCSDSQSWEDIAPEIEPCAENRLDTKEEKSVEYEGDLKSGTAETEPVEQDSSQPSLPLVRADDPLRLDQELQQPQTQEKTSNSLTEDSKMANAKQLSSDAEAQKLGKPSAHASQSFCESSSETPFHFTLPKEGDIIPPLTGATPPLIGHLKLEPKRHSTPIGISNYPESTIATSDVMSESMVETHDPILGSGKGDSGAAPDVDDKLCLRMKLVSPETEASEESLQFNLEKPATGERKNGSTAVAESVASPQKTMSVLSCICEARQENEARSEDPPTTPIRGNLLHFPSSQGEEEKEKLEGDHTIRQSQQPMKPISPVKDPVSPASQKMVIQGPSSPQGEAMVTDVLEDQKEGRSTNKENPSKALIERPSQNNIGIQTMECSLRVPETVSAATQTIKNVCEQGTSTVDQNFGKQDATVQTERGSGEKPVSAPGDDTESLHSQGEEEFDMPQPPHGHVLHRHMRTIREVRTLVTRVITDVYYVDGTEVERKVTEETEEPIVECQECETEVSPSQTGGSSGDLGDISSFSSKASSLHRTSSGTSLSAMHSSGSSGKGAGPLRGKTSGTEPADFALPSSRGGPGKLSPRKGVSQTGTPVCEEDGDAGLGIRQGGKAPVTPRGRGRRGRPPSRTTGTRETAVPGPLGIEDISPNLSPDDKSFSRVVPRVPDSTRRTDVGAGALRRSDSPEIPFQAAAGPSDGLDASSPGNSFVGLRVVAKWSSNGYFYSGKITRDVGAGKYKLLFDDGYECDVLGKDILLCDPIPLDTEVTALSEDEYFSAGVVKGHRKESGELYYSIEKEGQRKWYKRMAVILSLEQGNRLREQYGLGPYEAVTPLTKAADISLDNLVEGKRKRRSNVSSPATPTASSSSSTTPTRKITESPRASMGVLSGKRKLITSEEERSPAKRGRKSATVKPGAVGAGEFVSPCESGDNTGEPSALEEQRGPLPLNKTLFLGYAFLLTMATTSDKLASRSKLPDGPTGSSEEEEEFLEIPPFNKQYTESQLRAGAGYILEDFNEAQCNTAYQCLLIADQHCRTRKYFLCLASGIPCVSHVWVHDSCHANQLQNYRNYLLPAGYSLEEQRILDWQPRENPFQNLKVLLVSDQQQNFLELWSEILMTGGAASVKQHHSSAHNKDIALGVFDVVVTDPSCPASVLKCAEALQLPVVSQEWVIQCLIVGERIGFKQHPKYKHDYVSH
Sequence of MBT domain-containing protein 1 (Q05BQ5 whole entry, the tested form may be a part): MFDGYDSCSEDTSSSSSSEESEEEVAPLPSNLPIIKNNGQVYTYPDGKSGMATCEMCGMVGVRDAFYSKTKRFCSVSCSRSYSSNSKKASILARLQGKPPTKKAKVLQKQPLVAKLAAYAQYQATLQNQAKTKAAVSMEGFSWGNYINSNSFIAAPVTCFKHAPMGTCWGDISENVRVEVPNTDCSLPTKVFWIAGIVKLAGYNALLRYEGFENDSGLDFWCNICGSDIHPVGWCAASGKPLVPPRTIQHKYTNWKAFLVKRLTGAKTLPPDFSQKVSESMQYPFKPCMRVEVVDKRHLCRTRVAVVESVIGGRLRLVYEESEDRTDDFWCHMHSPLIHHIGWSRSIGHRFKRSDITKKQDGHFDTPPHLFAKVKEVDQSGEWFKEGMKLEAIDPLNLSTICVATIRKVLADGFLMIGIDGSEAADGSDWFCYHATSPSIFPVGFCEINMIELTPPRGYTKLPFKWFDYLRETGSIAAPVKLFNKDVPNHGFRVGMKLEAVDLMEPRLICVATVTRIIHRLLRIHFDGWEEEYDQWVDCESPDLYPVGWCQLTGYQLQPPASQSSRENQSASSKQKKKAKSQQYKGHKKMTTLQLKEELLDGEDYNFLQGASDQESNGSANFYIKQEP

CC(C)(C)NCCCNC(=O)c1ccccc1Br [2-Bromo-N-(3-(tert-butylamino)propyl)benzamide (16)]
> 100 µM: [1] | [2] | [3] | [4] | [5] | [6]

CC(C)(C)NCCCCNC(=O)c1cccc(Br)c1 [3-Bromo-N-(4-(tert-butylamino)butyl)benzamide (11)]
> 100 µM: [1] | [2] | [3] | [4] | [5] | [6]

CC(C)(C)NCCCCCNC(=O)c1cccc(Br)c1 [3-Bromo-N-(5-(tert-butylamino)pentyl)benzamide (12)]
> 100 µM: [1] | [2] | [3] | [4] | [5] | [6]

CC(C)(C)NCCCNC(=O)c1ccc(Br)cc1 [4-Bromo-N-(3-(tert-butylamino)propyl)benzamide (15)]
> 100 µM: [1] | [2] | [3] | [4] | [5] | [6]

CC(C)(C)NCCCNC(=O)c1cc(Br)ccn1 [4-Bromo-N-(3-(tert-butylamino)propyl)picolinamide (24)]
> 100 µM: [1] | [2] | [3] | [4] | [5] | [6]

CC(C)(C)N1CCN(C(=O)c2cccc(Br)c2)CC1 [(3-Bromophenyl)(4-(tert-butyl)piperazin-1-yl)methanone (10)]
> 100 µM: [1] | [2] | [3] | [4] | [5] | [6]

CC(C)(C)NCCCNC(=O)c1cc(C(F)(F)F)ccn1 [N-(3-(Tert-butylamino)propyl)-4-(trifluoromethyl)picolinamide (25)]
> 100 µM: [1] | [2] | [3] | [4] | [5] | [6]
